Measurements reported in patent US9839629B2, “Inhibitors of the renal outer medullary potassium channel” (Merck Sharp & Dohme Corp., priority 2013, dated 2017).

What follows are molecules tested against T1, ROMK (Kir1.1) channel (Homo sapiens, UniProt P48048) (assay: Thallium Flux Assay).
T1 sequence (P48048 1-391): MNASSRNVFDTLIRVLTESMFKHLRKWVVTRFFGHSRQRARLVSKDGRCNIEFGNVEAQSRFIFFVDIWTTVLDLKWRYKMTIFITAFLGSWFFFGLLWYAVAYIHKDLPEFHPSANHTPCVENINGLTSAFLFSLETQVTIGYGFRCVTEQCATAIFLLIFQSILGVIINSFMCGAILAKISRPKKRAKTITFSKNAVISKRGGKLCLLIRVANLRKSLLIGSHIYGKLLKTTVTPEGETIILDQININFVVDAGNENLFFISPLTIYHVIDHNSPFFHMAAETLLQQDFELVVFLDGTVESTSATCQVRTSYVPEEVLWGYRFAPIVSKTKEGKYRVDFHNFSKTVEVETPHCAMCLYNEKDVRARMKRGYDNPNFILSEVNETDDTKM
Type: cell-based
Method: A Thallium Flux Assay was performed on each of the final product compounds in the Examples. When the final product of an Example was an HCl salt, the salt was run in the Assay. This assay has been described previously; see, e.g., PCT Published Application WO 2013/062900.

SMILES	IC50
CC1=C(N2CCC3(CC2)CCN([C@@H](CO)c2ccc(-n4cnnn4)cc2C)CC3)COC1=O [Example 58, (R)-4-(9-(2-hydroxy-1-(2-methyl-4-(1H-tetrazol-1-yl)phenyl)ethyl)-3,9-diazaspiro[5.5]undecan-3-yl)-3-methylfuran-2(5H)-one]	256 nM
Cc1nc(-n2cnnn2)ccc1[C@H](O)CN1CCC2(CC1)CCN(C1=CC(=O)OC1)CC2 [Example 14, (S)-4-(9-(2-hydroxy-2-(2-methyl-6-(1H-tetrazol-1-yl)pyridin-3-yl)ethyl)-3,9-diazaspiro[5.5]undecan-3-yl)furan-2(5H)-one]	24 nM
Cc1cc(-n2cnnn2)ccc1[C@H](O)CN1CCC2(CC1)CCN(C1=CC(=O)OC1)CC2 [Example 25, (S)-4-(9-(2-hydroxy-2-(2-methyl-4-(1H-tetrazol-1-yl)phenyl)ethyl)-3,9-diazaspiro[5.5]undecan-3-yl)furan-2(5H)-one]	22 nM
Cc1c([C@@H](O)CN2CCC3(CC2)CCN(C2=CC(=O)OC2)C(C)C3)ccc2c1COC2=O (single isomer, unassigned) [Example 32]	49 nM
C[C@H]1Cc2cc([C@H](O)CN3CCC4(CC3)CCN(C3=CC(=O)OC3)CC4)ccc2C(=O)O1 [Example 12, (S)-6-((S)-1-hydroxy-2-(9-(5-oxo-2,5-dihydrofuran-3-yl)-3,9-diazaspiro[5.5]undecan-3-yl)ethyl)-3-methylisochroman-1-one]	685 nM
Cc1cc(-n2cnnn2)cnc1[C@@H](O)CN1CCC2(CC1)CCN(C1=CC(=O)OC1)CC2 [Example 20, (S)-4-(9-(2-hydroxy-2-(3-methyl-5-(1H-tetrazol-1-yl)pyridin-2-yl)ethyl)-3,9-diazaspiro[5.5]undecan-3-yl)furan-2(5H)-one]	98 nM
CC1=C(N2CCC3(CCN(C[C@H](O)c4ccc(-n5cnnn5)cc4F)CC3)CC2)COC1=O [Example 53, (R)-4-(9-(2-(2-fluoro-4-(1H-tetrazol-1-yl)phenyl)-2-hydroxyethyl)-3,9-diazaspiro[5.5]undecan-3-yl)-3-methylfuran-2(5H)-one]	14 nM
C[C@H]1Cc2cc([C@@H](O)CN3CCC4(CC3)CCN(C3=CC(=O)OC3)CC4)ccc2C(=O)O1 [Example 11, (S)-6-((R)-1-hydroxy-2-(9-(5-oxo-2,5-dihydrofuran-3-yl)-3,9-diazaspiro[5.5]undecan-3-yl)ethyl)-3-methylisochroman-1-one]	180 nM
CC1=C(N2CCC3(CCN(C[C@@H](O)c4ccc(-n5cnnn5)cc4F)CC3)CC2)COC1=O [Example 54, (S)-4-(9-(2-(2-fluoro-4-(1H-tetrazol-1-yl)phenyl)-2-hydroxyethyl)-3,9-diazaspiro[5.5]undecan-3-yl)-3-methylfuran-2(5H)-one]	8 nM
O=C1C=C(N2CCC3(CCN(C[C@@H](O)c4ccc(-n5cnnn5)nn4)CC3)CC2)CO1 [Example 17, (R)-4-(9-(2-(6-(1H-tetrazol-1-yl)pyridazin-3-yl)-2-hydroxyethyl)-3,9-diazaspiro[5.5]undecan-3-yl)furan-2(5H)-one]	91 nM
O=C1C=C(N2CCC3(CCN(C[C@H](O)c4ccc(-n5cnnn5)nn4)CC3)CC2)CO1 [Example 16, (S)-4-(9-(2-(6-(1H-tetrazol-1-yl)pyridazin-3-yl)-2-hydroxyethyl)-3,9-diazaspiro[5.5]undecan-3-yl)furan-2(5H)-one]	41 nM
CC1=C(N2CCC3(CCN(CC(O)c4ccc(Br)cc4)CC3)CC2)COC1=O (stereo not drawn) [Example 36, 4-(9-(2-(4-bromophenyl)-2-hydroxyethyl)-3,9-diazaspiro[5.5]undecan-3-yl)-3-methylfuran-2(5H)-one]	115 nM
CC1=C(N2CCC3(CCN(C[C@H](O)c4ccc5c(c4C)COC5=O)CC3)CC2=O)COC1=O [Example 28, (R)-9-(2-hydroxy-2-(4-methyl-1-oxo-1,3-dihydroisobenzofuran-5-yl)ethyl)-3-(4-methyl-5-oxo-2,5-dihydrofuran-3-yl)-3,9-diazaspiro[5.5]undecan-2-one]	552 nM
Cc1nc(-n2cnnn2)ccc1[C@@H](O)CN1CCC2(CC1)CCN(C1=CC(=O)OC1)C(=O)O2 [Example 31, (R)-9-(2-hydroxy-2-(2-methyl-6-(1H-tetrazol-1-yl)pyridin-3-yl)ethyl)-3-(5-oxo-2,5-dihydrofuran-3-yl)-1-oxa-3,9-diazaspiro[5.5]undecan-2-one]	65 nM
O=C1C=C(N2CCC3(CCN(C[C@@H](O)c4ccc(-n5cnnn5)nc4)CC3)CC2)CO1 [Example 19, (S)-4-(9-(2-(6-(1H-tetrazol-1-yl)pyridin-3-yl)-2-hydroxyethyl)-3,9-diazaspiro[5.5]undecan-3-yl)furan-2(5H)-one]	74 nM
CC1=C(N2CCC3(CCN(C[C@H](O)c4ccc(-n5cnnn5)nc4)CC3)CC2)COC1=O [Example 47, (R)-4-(9-(2-(6-(1H-tetrazol-1-yl)pyridin-3-yl)-2-hydroxyethyl)-3,9-diazaspiro[5.5]undecan-3-yl)-3-methylfuran-2(5H)-one]	13 nM
CC1=C(N2CCC3(CCN(C[C@@H](O)c4ccc(-n5cnnn5)nc4)CC3)CC2)COC1=O [Example 48, (S)-4-(9-(2-(6-(1H-tetrazol-1-yl)pyridin-3-yl)-2-hydroxyethyl)-3,9-diazaspiro[5.5]undecan-3-yl)-3-methylfuran-2(5H)-one]	19 nM
CC1=C(N2CCC3(CCN(C[C@@H](O)c4ccc(-n5cnnn5)cc4C)CC3)CC2)COC1=O [Example 56, (S)-4-(9-(2-hydroxy-2-(2-methyl-4-(1H-tetrazol-1-yl)phenyl)ethyl)-3,9-diazaspiro[5.5]undecan-3-yl)-3-methylfuran-2(5H)-one]	11 nM
CC1=C(N2CCC3(CCN(C[C@H](O)c4ccc(-n5cnnn5)cc4)CC3)CC2)COC1=O [Example 49, (R)-4-(9-(2-(4-(1H-tetrazol-1-yl)phenyl)-2-hydroxyethyl)-3,9-diazaspiro[5.5]undecan-3-yl)-3-methylfuran-2(5H)-one]	16 nM
Cc1c([C@@H](O)CN2CCC3(CC2)CCN(C2=CC(=O)OC2)CC3)ccc2c1COC2=O [Example 8, (R)-5-(1-hydroxy-2-(9-(5-oxo-2,5-dihydrofuran-3-yl)-3,9-diazaspiro[5.5]undecan-3-yl)ethyl)-4-methylisobenzofuran-1(3H)-one]	49 nM

The next lines start with the values.

IC50	SMILES
69 nM	CC1=C(N2CCC3(CCN(C[C@H](O)c4ccc(-n5cnnn5)nc4C)CC3)CC2)CCC1=O [Example 74, (R)-3-(9-(2-hydroxy-2-(2-methyl-6-(1H-tetrazol-1-yl)pyridin-3-yl)ethyl)-3,9-diazaspiro[5.5]undecan-3-yl)-2-methylcyclopent-2-enone]
185 nM	CC1=C(N2CCC3(CCN(C[C@@H](O)c4cc(-n5cnnn5)ccn4)CC3)CC2)COC1=O [Example 68, (R)-4-(9-(2-(4-(1H-tetrazol-1-yl)pyridin-2-yl)-2-hydroxyethyl)-3,9-diazaspiro[5.5]undecan-3-yl)-3-methylfuran-2(5H)-one]
132 nM	COCO[C@@H]1CN(C2=C(C)C(=O)OC2)CCC12CCN(C[C@H](O)c1ccc3c(c1C)COC3=O)CC2 [Example 96, 5-{(1R)-1-hydroxy-2-[(7S)-7-(methoxymethoxy)-9-(4-methyl-5-oxo-2,5-dihydrofuran-3-yl)-3,9-diazaspiro[5.5]undec-3-yl]ethyl}-4-methyl-2-benzofuran-1(3H)-one]
688 nM	Cc1c(N2CCC3(CCN(C[C@H](O)c4ccc(-n5cnnn5)cn4)CC3)CC2)c(=O)c1=O [Example 87, (S)-3-(9-(2-(5-(1H-tetrazol-1-yl)pyridin-2-yl)-2-hydroxyethyl)-3,9-diazaspiro[5.5]undecan-3-yl)-4-methylcyclobut-3-ene-1,2-dione]
141 nM	Cc1c([C@@H](O)CN2CCC3(CC2)CCN(c2c(C4CC4)c(=O)c2=O)CC3)ccc2c1COC2=O [Example 80, (R)-3-cyclopropyl-4-(9-(2-hydroxy-2-(4-methyl-1-oxo-1,3-dihydroisobenzofuran-5-yl)ethyl)-3,9-diazaspiro[5.5]undecan-3-yl)cyclobut-3-ene-1,2-dione]
439 nM	Cc1c([C@@H](O)CN2CCC3(CC2)CCN(C2=CC(=O)CC2)CC3)ccc2c1COC2=O [Example 72, (R)-5-(1-hydroxy-2-(9-(3-oxocyclopent-1-en-1-yl)-3,9-diazaspiro[5.5]undecan-3-yl)ethyl)-4-methylisobenzofuran-1(3H)-one]
109 nM	CC1=C(N2CCC3(CCN(C[C@H](O)c4cncc(-n5cnnn5)n4)CC3)CC2)COC1=O [Example 65, (S)-4-(9-(2-(6-(1H-tetrazol-1-yl)pyrazin-2-yl)-2-hydroxyethyl)-3,9-diazaspiro[5.5]undecan-3-yl)-3-methylfuran-2(5H)-one]
34 nM	Cc1c(N2CCC3(CCN(C[C@@H](O)c4ccc(-n5cnnn5)nc4)CC3)CC2)c(=O)c1=O [Example 82, (S)-3-(9-(2-(6-(1H-tetrazol-1-yl)pyridin-3-yl)-2-hydroxyethyl)-3,9-diazaspiro[5.5]undecan-3-yl)-4-methylcyclobut-3-ene-1,2-dione]
117 nM	CC1=C(N2CCC3(CCN(C[C@@H](O)c4cncc(-n5cnnn5)c4)CC3)CC2)COC1=O [Example 64, (S)-4-(9-(2-(5-(1H-tetrazol-1-yl)pyridin-3-yl)-2-hydroxyethyl)-3,9-diazaspiro[5.5]undecan-3-yl)-3-methylfuran-2(5H)-one]
116 nM	O=C1C=C(N2CCC3(CCN(C(=O)Cc4ccc(-n5cnnn5)cc4)CC3)CC2)CO1 [Example 102, 4-(9-{[4-(1H-tetrazol-1-yl)phenyl]acetyl}-3,9-diazaspiro[5.5]undec-3-yl)furan-2(5H)-one]
